Results reported in PubChem BioAssay (NCI).
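48-hour exposure; five concentrations; linearly interpolated endpoints. TGI marks complete inhibition of growth.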

Tests used:
Test in all cases: NCI anticancer screen, dose series, 48 h
MOLT-4 leukemia = test system: MOLT-4 leukemia
SK-MEL-5 melanoma = test system: SK-MEL-5 melanoma
IGROV1 ovarian = test system: IGROV1 ovarian
HCT-15 colon = test system: HCT-15 colon
SK-MEL-2 melanoma = test system: SK-MEL-2 melanoma
T-47D breast = test system: T-47D breast
SNB-75 CNS = test system: SNB-75 CNS
NCI-H522 lung = test system: NCI-H522 lung
KM12 colon = test system: KM12 colon
HCC-2998 colon = test system: HCC-2998 colon
SW-620 colon = test system: SW-620 colon
NCI/ADR-RES ovarian = test system: NCI/ADR-RES ovarian
COLO 205 colon = test system: COLO 205 colon
RPMI-8226 leukemia = test system: RPMI-8226 leukemia
MALME-3M melanoma = test system: MALME-3M melanoma
HOP-62 NSCLC = test system: HOP-62 NSCLC
M14 melanoma = test system: M14 melanoma
SF-539 CNS = test system: SF-539 CNS
A498 renal = test system: A498 renal
MDA-N = test system: MDA-N
DU-145 prostate = test system: DU-145 prostate
SN12C renal = test system: SN12C renal
HCT-116 colon = test system: HCT-116 colon
HS 578T breast = test system: HS 578T breast
CAKI-1 renal = test system: CAKI-1 renal
UACC-62 melanoma = test system: UACC-62 melanoma
BT-549 breast = test system: BT-549 breast
NCI-H460 lung = test system: NCI-H460 lung
HL-60(TB) leukemia = test system: HL-60(TB) leukemia
OVCAR-5 ovarian = test system: OVCAR-5 ovarian
786-0 renal = test system: 786-0 renal
UO-31 renal = test system: UO-31 renal
A549 NSCLC = test system: A549 NSCLC
SNB-19 CNS = test system: SNB-19 CNS
NCI-H226 lung = test system: NCI-H226 lung
HOP-92 NSCLC = test system: HOP-92 NSCLC
MCF7 breast = test system: MCF7 breast
SR leukemia = test system: SR leukemia
SF-295 CNS = test system: SF-295 CNS
OVCAR-8 ovarian = test system: OVCAR-8 ovarian
RXF 393 renal = test system: RXF 393 renal
UACC-257 melanoma = test system: UACC-257 melanoma
ACHN renal = test system: ACHN renal
OVCAR-4 ovarian = test system: OVCAR-4 ovarian
K-562 leukemia = test system: K-562 leukemia
EKVX NSCLC = test system: EKVX NSCLC
HT29 colon = test system: HT29 colon
U251 CNS = test system: U251 CNS
NCI-H23 lung = test system: NCI-H23 lung
SK-MEL-28 melanoma = test system: SK-MEL-28 melanoma
PC-3 prostate = test system: PC-3 prostate
LOX IMVI melanoma = test system: LOX IMVI melanoma
SF-268 CNS = test system: SF-268 CNS
CCRF-CEM leukemia = test system: CCRF-CEM leukemia
MDA-MB-231 breast = test system: MDA-MB-231 breast
MDA-MB-435 = test system: MDA-MB-435
OVCAR-3 ovarian = test system: OVCAR-3 ovarian
TK-10 renal = test system: TK-10 renal
SK-OV-3 ovarian = test system: SK-OV-3 ovarian

SMILES: Cc1cc2cc3c(C)cc(=O)oc3c(C)c2o1
- TGI (MOLT-4 leukemia): > 100 µM
- TGI (SK-MEL-5 melanoma): > 100 µM
- TGI (IGROV1 ovarian): > 100 µM
- TGI (HCT-15 colon): > 100 µM
- TGI (SK-MEL-2 melanoma): > 100 µM
- TGI (T-47D breast): > 100 µM
- TGI (SNB-75 CNS): > 100 µM
- TGI (NCI-H522 lung): > 100 µM
- TGI (KM12 colon): > 100 µM
- TGI (HCC-2998 colon): > 100 µM
- TGI (SW-620 colon): > 100 µM
- TGI (NCI/ADR-RES ovarian): > 100 µM
- TGI (COLO 205 colon): > 100 µM
- TGI (RPMI-8226 leukemia): > 100 µM
- TGI (MALME-3M melanoma): > 100 µM
- TGI (HOP-62 NSCLC): > 100 µM
- TGI (M14 melanoma): > 100 µM
- TGI (SF-539 CNS): > 100 µM
- TGI (A498 renal): > 100 µM
- TGI (MDA-N): > 100 µM
- TGI (DU-145 prostate): > 100 µM
- TGI (SN12C renal): > 100 µM
- TGI (HCT-116 colon): > 100 µM
- TGI (HS 578T breast): > 100 µM
- TGI (CAKI-1 renal): > 100 µM
- TGI (UACC-62 melanoma): > 100 µM
- TGI (BT-549 breast): > 100 µM
- TGI (NCI-H460 lung): > 100 µM
- TGI (HL-60(TB) leukemia): > 100 µM
- TGI (OVCAR-5 ovarian): > 100 µM
- TGI (786-0 renal): > 100 µM
- TGI (UO-31 renal): > 100 µM
- TGI (A549 NSCLC): > 100 µM
- TGI (SNB-19 CNS): > 100 µM
- TGI (NCI-H226 lung): > 100 µM
- TGI (HOP-92 NSCLC): > 100 µM
- TGI (MCF7 breast): > 100 µM
- TGI (SR leukemia): > 100 µM
- TGI (SF-295 CNS): > 100 µM
- TGI (OVCAR-8 ovarian): > 100 µM
- TGI (RXF 393 renal): > 100 µM
- TGI (UACC-257 melanoma): > 100 µM
- TGI (ACHN renal): > 100 µM
- TGI (OVCAR-4 ovarian): > 100 µM
- TGI (K-562 leukemia): > 100 µM
- TGI (EKVX NSCLC): > 100 µM
- TGI (HT29 colon): > 100 µM
- TGI (U251 CNS): > 100 µM
- TGI (NCI-H23 lung): > 100 µM
- TGI (SK-MEL-28 melanoma): > 100 µM
- TGI (PC-3 prostate): > 100 µM
- TGI (LOX IMVI melanoma): > 100 µM
- TGI (SF-268 CNS): > 100 µM
- TGI (CCRF-CEM leukemia): > 100 µM
- TGI (MDA-MB-231 breast): > 100 µM
- TGI (MDA-MB-435): > 100 µM
- TGI (OVCAR-3 ovarian): > 100 µM

SMILES: c1ccc(Nc2nnc(Cn3ccc4ccccc43)s2)cc1
- TGI (MOLT-4 leukemia): > 100 µM
- TGI (SK-MEL-5 melanoma): > 100 µM
- TGI (IGROV1 ovarian): > 100 µM
- TGI (HCT-15 colon): > 100 µM
- TGI (SK-MEL-2 melanoma): > 100 µM
- TGI (T-47D breast): > 100 µM
- TGI (SNB-75 CNS): 82.8 µM
- TGI (NCI-H522 lung): > 100 µM
- TGI (KM12 colon): > 100 µM
- TGI (HCC-2998 colon): > 100 µM
- TGI (SW-620 colon): > 100 µM
- TGI (NCI/ADR-RES ovarian): > 100 µM
- TGI (COLO 205 colon): > 100 µM
- TGI (RPMI-8226 leukemia): > 100 µM
- TGI (HOP-62 NSCLC): > 100 µM
- TGI (M14 melanoma): > 100 µM
- TGI (SF-539 CNS): > 100 µM
- TGI (A498 renal): > 100 µM
- TGI (MDA-N): > 100 µM
- TGI (DU-145 prostate): > 100 µM
- TGI (SN12C renal): > 100 µM
- TGI (HCT-116 colon): > 100 µM
- TGI (HS 578T breast): > 100 µM
- TGI (CAKI-1 renal): 70.6 µM
- TGI (UACC-62 melanoma): > 100 µM
- TGI (BT-549 breast): > 100 µM
- TGI (NCI-H460 lung): > 100 µM
- TGI (OVCAR-5 ovarian): > 100 µM
- TGI (786-0 renal): > 100 µM
- TGI (UO-31 renal): > 100 µM
- TGI (A549 NSCLC): > 100 µM
- TGI (SNB-19 CNS): > 100 µM
- TGI (NCI-H226 lung): > 100 µM
- TGI (HOP-92 NSCLC): > 100 µM
- TGI (MCF7 breast): > 100 µM
- TGI (SR leukemia): > 100 µM
- TGI (TK-10 renal): > 100 µM
- TGI (SF-295 CNS): 80.9 µM
- TGI (OVCAR-8 ovarian): > 100 µM
- TGI (RXF 393 renal): > 100 µM
- TGI (UACC-257 melanoma): > 100 µM
- TGI (ACHN renal): > 100 µM
- TGI (SK-OV-3 ovarian): > 100 µM
- TGI (OVCAR-4 ovarian): > 100 µM
- TGI (K-562 leukemia): > 100 µM
- TGI (EKVX NSCLC): > 100 µM
- TGI (HT29 colon): > 100 µM
- TGI (U251 CNS): > 100 µM
- TGI (NCI-H23 lung): > 100 µM
- TGI (SK-MEL-28 melanoma): > 100 µM
- TGI (PC-3 prostate): > 100 µM
- TGI (LOX IMVI melanoma): > 100 µM
- TGI (SF-268 CNS): > 100 µM
- TGI (CCRF-CEM leukemia): > 100 µM
- TGI (MDA-MB-231 breast): > 100 µM
- TGI (MDA-MB-435): > 100 µM
- TGI (OVCAR-3 ovarian): > 100 µM

SMILES: O=C(CCc1ccc(O)cc1)NCCc1cccc(OCc2ccccc2)c1
- TGI (MOLT-4 leukemia): 48.4 µM
- TGI (SK-MEL-5 melanoma): 32.7 µM
- TGI (IGROV1 ovarian): > 100 µM
- TGI (HCT-15 colon): > 100 µM
- TGI (SK-MEL-2 melanoma): 39.1 µM
- TGI (T-47D breast): 67.7 µM
- TGI (NCI-H522 lung): 99.3 µM
- TGI (KM12 colon): 83 µM
- TGI (HCC-2998 colon): 41.3 µM
- TGI (NCI/ADR-RES ovarian): > 100 µM
- TGI (COLO 205 colon): > 100 µM
- TGI (MALME-3M melanoma): 79.6 µM
- TGI (HOP-62 NSCLC): > 100 µM
- TGI (M14 melanoma): 36.2 µM
- TGI (SF-539 CNS): 31 µM
- TGI (A498 renal): > 100 µM
- TGI (MDA-N): 68.4 µM
- TGI (DU-145 prostate): > 100 µM
- TGI (SN12C renal): > 100 µM
- TGI (HCT-116 colon): 50.6 µM
- TGI (HS 578T breast): > 100 µM
- TGI (CAKI-1 renal): > 100 µM
- TGI (UACC-62 melanoma): 34 µM
- TGI (BT-549 breast): 45.6 µM
- TGI (NCI-H460 lung): 66.6 µM
- TGI (HL-60(TB) leukemia): 50 µM
- TGI (OVCAR-5 ovarian): > 100 µM
- TGI (786-0 renal): > 100 µM
- TGI (UO-31 renal): 53.9 µM
- TGI (A549 NSCLC): > 100 µM
- TGI (SNB-19 CNS): > 100 µM
- TGI (NCI-H226 lung): 97.8 µM
- TGI (HOP-92 NSCLC): 70.9 µM
- TGI (MCF7 breast): 86.6 µM
- TGI (SR leukemia): 36.5 µM
- TGI (TK-10 renal): 79.5 µM
- TGI (SF-295 CNS): > 100 µM
- TGI (OVCAR-8 ovarian): > 100 µM
- TGI (RXF 393 renal): > 100 µM
- TGI (UACC-257 melanoma): 39.3 µM
- TGI (ACHN renal): > 100 µM
- TGI (SK-OV-3 ovarian): > 100 µM
- TGI (OVCAR-4 ovarian): > 100 µM
- TGI (K-562 leukemia): 65.9 µM
- TGI (EKVX NSCLC): > 100 µM
- TGI (HT29 colon): 38.4 µM
- TGI (U251 CNS): 64.9 µM
- TGI (NCI-H23 lung): 71.6 µM
- TGI (SK-MEL-28 melanoma): 63.2 µM
- TGI (PC-3 prostate): 88.4 µM
- TGI (LOX IMVI melanoma): 30.4 µM
- TGI (SF-268 CNS): > 100 µM
- TGI (CCRF-CEM leukemia): 20.7 µM
- TGI (MDA-MB-231 breast): > 100 µM
- TGI (MDA-MB-435): 38.6 µM
- TGI (OVCAR-3 ovarian): 35.1 µM
